In PubChem BioAssay (NCI) one finds TGI and GI50 data, which are given here for 11 molecules.

The structures appear in SMILES notation.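 In this assay, cells in 96-well plates receive the compound at five concentrations for 48 hours. Endpoints are linearly interpolated between the surrounding concentrations. GI50 is the concentration that inhibits growth by half. At the TGI there is no net growth.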

Test systems include NCI-H23 lung; SR leukemia; UACC-257 melanoma; CAKI-1 renal; SK-OV-3 ovarian; DU-145 prostate; SF-539 CNS; SN12C renal; LXFL 529 NSCLC; DLD-1 colon; DMS 114 small cell lung; HOP-18 NSCLC.
Experiment in all cases: inhibition of tumour cell growth, NCI panel, 48 h

Regarding `CCOC1NC(=O)Oc2ccccc21` (stereo not given), the TGI with NCI-H23 lung, in the test with SR leukemia, with UACC-257 melanoma, in the test with CAKI-1 renal, in the test on SK-OV-3 ovarian and in the test with DU-145 prostate was > 100 µM throughout. For the same molecule, the TGI in the test with SF-539 CNS and in the test with SN12C renal was > 100 µM each time.

For the molecule `Oc1ccc2ccccc2c1/C=N\Nc1ccccn1`, the GI50 in the test with NCI-H23 lung was 539 nM; with SR leukemia, 357 nM; in the test with UACC-257 melanoma, 1720 nM; in the test on CAKI-1 renal, 212 nM; in the test on SK-OV-3 ovarian, 640 nM; in the test with DU-145 prostate it was 482 nM. In addition, the GI50 is 529 nM with SF-539 CNS and 1700 nM in the test on SN12C renal. The TGI is > 100 µM in the test on NCI-H23 lung; > 100 µM with SR leukemia; > 100 µM in the test on UACC-257 melanoma; 0.678 µM in the test on CAKI-1 renal; > 55 µM in the test on SK-OV-3 ovarian; > 26.8 µM in the test with SF-539 CNS. The TGI in the test with SN12C renal is > 100 µM.

Turning to `COC(=O)c1oc2c(C(=O)/C=C/c3ccc(OC)cc3)c(OCCCN3CCCCC3)ccc2c1C`, the GI50 in the test on NCI-H23 lung is 1300 nM; in the test on SR leukemia, 1450 nM; in the test on UACC-257 melanoma, 1320 nM; in the test with CAKI-1 renal it was 2090 nM; in the test with SK-OV-3 ovarian, 1250 nM; in the test on DU-145 prostate, 1180 nM. Besides, the GI50 in the test with SF-539 CNS is 1450 nM; in the test with SN12C renal, 1750 nM. The TGI in the test on NCI-H23 lung is 3.47 µM; with SR leukemia, 3.78 µM; in the test on UACC-257 melanoma, 2.88 µM; with CAKI-1 renal, 4.96 µM; in the test with SK-OV-3 ovarian it was 4.35 µM; with DU-145 prostate it was 2.57 µM. Further, the TGI in the test with SF-539 CNS was found to be 2.91 µM; with SN12C renal, 4.86 µM.

As for `Cc1ccc(/C=C(\C#N)n2nnc3cc(F)c(F)cc32)cc1`, the GI50 with NCI-H23 lung is 5210 nM; in the test on SR leukemia it was 391 nM; in the test on UACC-257 melanoma, 1630 nM; with CAKI-1 renal, 1770 nM; in the test with SK-OV-3 ovarian it was 4490 nM; with DU-145 prostate it was 3320 nM. Besides, the results for the GI50 in the test on SF-539 CNS and with SN12C renal were 2590 nM and 2720 nM, respectively. The TGI in the test on NCI-H23 lung turned out to be 28 µM; in the test on SR leukemia, 13.9 µM; with UACC-257 melanoma, 3.54 µM; with CAKI-1 renal it was 19.1 µM; with SK-OV-3 ovarian, 33.7 µM; in the test with DU-145 prostate, 15.6 µM. Besides, the TGI was 10.3 µM with SF-539 CNS and 7.41 µM in the test on SN12C renal.

With `CC(C)(C)c1ccc(-c2nnc(SCc3ccc(Cl)cc3)n2-c2cccc(C(F)(F)F)c2)cc1`, the TGI in the test on NCI-H23 lung was > 100 µM; in the test with SR leukemia, 31.5 µM; with UACC-257 melanoma, > 72.6 µM; with CAKI-1 renal, > 100 µM; with SK-OV-3 ovarian, > 100 µM; with DU-145 prostate, > 100 µM. For the same molecule, the TGI was > 100 µM in the test on SF-539 CNS and 14 µM in the test with SN12C renal.

`CC(=O)O[C@H]1CC[C@@]2(C)C(=CC[C@@H]3C2CC[C@]2(C)Nc4oncc4CC32)C1` (stereo not given in full): the TGI in the test on NCI-H23 lung is > 100 µM; in the test on LXFL 529 NSCLC it was 26.5 µM; in the test with UACC-257 melanoma, > 100 µM; with CAKI-1 renal, > 100 µM; in the test with SK-OV-3 ovarian, > 100 µM; in the test on SF-539 CNS it was > 100 µM. In addition, the TGI in the test with DLD-1 colon is > 100 µM.

Consider `CCOc1ccc2c(c1)/C(=C\C=C\C1CC(C)C3CC(OCC)CCC3N1CC)CC(C)N2CC` (stereo not given), for which the GI50 in the test on NCI-H23 lung is 567 nM; in the test with SR leukemia, 412 nM; in the test on UACC-257 melanoma, 795 nM; in the test on CAKI-1 renal, 1650 nM; in the test with SK-OV-3 ovarian, 596 nM; in the test with DU-145 prostate it was 991 nM. Moreover, the GI50 with SF-539 CNS is 1270 nM; in the test with SN12C renal, 471 nM. For the same molecule, the TGI in the test on NCI-H23 lung was 2.38 µM; in the test with SR leukemia it was 2.75 µM; with UACC-257 melanoma, 2.15 µM; in the test on CAKI-1 renal, 4.16 µM; in the test with SK-OV-3 ovarian, 1.92 µM; with DU-145 prostate, 2.25 µM. Moreover, the TGI in the test on SF-539 CNS was 2.68 µM; in the test with SN12C renal, 1.81 µM.

In the case of `Cc1cc(Cl)ccc1NC(=O)C1C(=O)N(c2ccc(Cl)cc2C)C(=O)/C1=N\N` (stereo not given), the TGI in the test on NCI-H23 lung, in the test on DMS 114 small cell lung, with HOP-18 NSCLC, in the test on SR leukemia, in the test with LXFL 529 NSCLC and in the test on UACC-257 melanoma was > 100 µM throughout. In addition, the TGI in the test on CAKI-1 renal, with SK-OV-3 ovarian, in the test with SF-539 CNS and in the test on SN12C renal was > 100 µM in each case.

Take `NCCOc1ccccn1`: the TGI in the test with NCI-H23 lung, with SR leukemia, in the test with UACC-257 melanoma, in the test with CAKI-1 renal, in the test with SK-OV-3 ovarian and in the test on DU-145 prostate was > 100 µM each time. Also, the TGI with SF-539 CNS and with SN12C renal was > 100 µM throughout.

As to `N#CC(C#N)=C1NC(=O)C(c2ccccc2)C(=O)N1` (stereo not given), the TGI in the test with NCI-H23 lung, with DMS 114 small cell lung, in the test with SR leukemia, in the test with LXFL 529 NSCLC, in the test on UACC-257 melanoma and with CAKI-1 renal was > 100 µM in each case. The TGI with SK-OV-3 ovarian, in the test on SF-539 CNS, in the test with DLD-1 colon and with SN12C renal was > 100 µM in each case.

Turning to `COc1ccc(C2CC(c3cc(OC)c(OC)c(OC)c3)=NN2)cc1` (stereo not given), the GI50 in the test on NCI-H23 lung was 12900 nM; with SR leukemia, 1010 nM; in the test with UACC-257 melanoma, 43400 nM; in the test on CAKI-1 renal, 7390 nM; in the test on SK-OV-3 ovarian it was 12400 nM; with DU-145 prostate it was 33900 nM. Further, the GI50 is 5880 nM in the test with SF-539 CNS and 31400 nM in the test on SN12C renal. The TGI was > 100 µM in the test on NCI-H23 lung; 4.43 µM with SR leukemia; > 100 µM in the test on UACC-257 melanoma; 63.5 µM with CAKI-1 renal; > 100 µM in the test with SK-OV-3 ovarian; > 100 µM in the test on DU-145 prostate. The figures for the TGI with SF-539 CNS and with SN12C renal were 36.6 µM and > 100 µM, respectively.
